From patent US20130331345A1, “PUERARIN HYDRATES, PREPARATION METHODS AND USES THEREOF” (priority 2010, published 2013)

Key:
[1] = tested on: chronic ocular hypertension; test: Effects on chronic ocular hypertension of rabbits (dexamethasone model); format: in vivo; conditions: within 24 hours, puerarin hydrate 1% (W/V), betaxolol 0.5% (W/V)
Method: Chronic Ocular Hypertension Models: 32 rabbits, half male and half female, were subjected to sub-conjunctive injection with 0.5 mg of dexamethasone under corneal limbus, once every other day, for consecutive 3 weeks, to obtain chronic ocular hypertension models, then randomly divided into physiological saline group, betaxolol group [0.5% (W/V)], puerarin hydrate group [1% (W/V)]. The maximum decrease of intraocular pressure was measured within 24 hours.

[2] = Accelerated stability test (40° C., RH75%), sealed in penicillin bottles; format: physicochemical; conditions: for Marked content (%) / Property / Related substance (%): accelerated, 40° C.
Method: (§1) The sample of the puerarin hydrate above (prepared by method of Example 1) and anhydrous puerarin (anhydrous puerarin was prepared by: drying the hydrate as prepared in Example 1 at 90-105° C. in the presence of phosphorus pentoxide under vacuum for 24-72 hours or more to obtain an anhydrous puerarin, and the water content of anhydrous puerarin was usually lower than 1.0% as measured by Karl Fisher method) were sealed in penicillin bottles to perform accelerated stability test (chromatography conditions: chromatography column: C18 (150 mm×4.6 mm, 5 μm); mobile phase: 0.1% citric acid solution-methanol (75:25); flow rate: 1 ml/min; temperature: room temperature; detection wavelength: 250 nm). […] Hygroscopicity test was performed according to the Pharmacopoeia of the People's Republic of China: about 5 g of anhydrous puerarin and the crystalline hydrate of the present invention were taken, placed in dry watch glasses with constant weight, weighed precisely. Samples were taken separately at 0 h and 48 h of the test at 25° C. and relative humidity of 75%, and hygroscopicity weight gain percentages were calculated.

[3] = Hygroscopicity test according to the Pharmacopoeia of the People's Republic of China; format: physicochemical; conditions: 48 h, 25° C., relative humidity 75%
Method: as §1

[4] = Sticking in direct tableting of powder; format: physicochemical; conditions: tableting 200 mg of powder; printed '1-3 times or higher'
Method: In addition, the puerarin hydrate of the present invention overcomes the drawback of deliquescent property of anhydrous puerarin, so that it is not necessary to isolate air to prevent adhesion, and has good sliding property, and the manipuility for manufacturing preparations is improved. Anhydrous puerarin has sticking phenomenon when its powder is used for direct tableting. When tableting 200 mg of powder, anhydrous puerarin has a sticking amount 1-3 times or higher than that of puerarin monohydrate.

ACE = molecular target: T1, ACE (Rattus norvegicus, UniProt P47820); test: Effects on inhibiting ACE activity (rat blood serum after intraperitoneal injection); format: in vivo, Wistar rats; conditions: rats, 200 mg/kg intraperitoneal
T1 construct: from tissue; host or cells: blood serum of Wistar rats
T1 sequence (P47820 36-1313): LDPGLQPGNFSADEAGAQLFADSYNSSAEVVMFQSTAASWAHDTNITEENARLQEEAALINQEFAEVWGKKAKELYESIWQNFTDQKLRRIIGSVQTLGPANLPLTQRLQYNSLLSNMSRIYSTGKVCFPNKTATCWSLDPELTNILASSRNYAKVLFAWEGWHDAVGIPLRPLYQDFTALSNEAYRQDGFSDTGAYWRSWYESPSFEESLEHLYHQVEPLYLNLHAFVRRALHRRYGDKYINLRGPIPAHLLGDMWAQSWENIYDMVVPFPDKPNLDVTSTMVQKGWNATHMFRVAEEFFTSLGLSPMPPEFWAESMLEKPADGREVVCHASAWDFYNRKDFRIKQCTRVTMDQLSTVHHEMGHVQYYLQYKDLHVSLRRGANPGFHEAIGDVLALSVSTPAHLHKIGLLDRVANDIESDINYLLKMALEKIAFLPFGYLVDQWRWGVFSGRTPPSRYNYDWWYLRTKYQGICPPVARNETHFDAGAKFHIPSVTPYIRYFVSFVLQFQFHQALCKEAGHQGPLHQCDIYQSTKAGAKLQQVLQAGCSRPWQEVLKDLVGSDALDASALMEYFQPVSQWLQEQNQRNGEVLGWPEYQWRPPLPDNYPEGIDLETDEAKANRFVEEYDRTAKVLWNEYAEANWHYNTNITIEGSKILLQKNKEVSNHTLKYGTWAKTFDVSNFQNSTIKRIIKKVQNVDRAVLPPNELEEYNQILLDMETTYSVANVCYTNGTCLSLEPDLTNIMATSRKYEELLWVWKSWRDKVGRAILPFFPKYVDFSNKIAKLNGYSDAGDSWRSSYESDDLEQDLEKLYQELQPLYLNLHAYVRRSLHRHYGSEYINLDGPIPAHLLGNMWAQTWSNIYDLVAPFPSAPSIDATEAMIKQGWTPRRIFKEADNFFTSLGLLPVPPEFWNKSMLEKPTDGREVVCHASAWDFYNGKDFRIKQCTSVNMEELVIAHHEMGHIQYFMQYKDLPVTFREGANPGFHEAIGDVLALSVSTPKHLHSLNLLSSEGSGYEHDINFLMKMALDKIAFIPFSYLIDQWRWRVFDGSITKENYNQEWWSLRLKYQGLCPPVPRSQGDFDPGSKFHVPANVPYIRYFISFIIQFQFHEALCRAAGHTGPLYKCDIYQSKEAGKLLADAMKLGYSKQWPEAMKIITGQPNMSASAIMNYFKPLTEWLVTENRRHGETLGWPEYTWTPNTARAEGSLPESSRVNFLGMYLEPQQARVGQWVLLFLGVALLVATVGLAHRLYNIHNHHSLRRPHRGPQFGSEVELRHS
Method: 24 Wistar rats, 280-300 g, were randomly divided into 3 groups, 8 rats per group, one group was control group, other two groups were separately 100 mg/kg, 200 mg/kg dose groups (which was added with cosolvent to form an injectable solution), subjected to intraperitoneal injection, the control group was administered with physiological saline. 60 min after administration, the rats were anesthetized with 1% pentobarbital sodium, subjected to thoracotomy and blood sample was taken from heart, the blood sample stood at room temperature for 30 min, centrifuged under 3500 r/min at low temperature for 10 min, the supernatant was taken and stored at about −65° C., for test. Measurement of ACE activity: referring to document [WANG, Fumin, et al, Chinese Journal of Laboratory Medicine, 1983, 6(3):145-151], the results were subjected to statistical treatment: the results were expressed in x±S, and data were subjected to analysis of variance and t-test.

blood pressure = conditions: anesthetized dogs, injection; cited from earlier work
β1 receptor = molecular target: T2, β1 receptor (Cavia porcellus, UniProt H0W3H1); conditions: ex vivo atrial muscle of guinea pigs; cited from earlier work
T2 construct: ex vivo atrial muscle β1 receptor of guinea pigs; from tissue; host or cells: guinea pig atrial muscle, ex vivo
T2 sequence (H0W3H1 1-470): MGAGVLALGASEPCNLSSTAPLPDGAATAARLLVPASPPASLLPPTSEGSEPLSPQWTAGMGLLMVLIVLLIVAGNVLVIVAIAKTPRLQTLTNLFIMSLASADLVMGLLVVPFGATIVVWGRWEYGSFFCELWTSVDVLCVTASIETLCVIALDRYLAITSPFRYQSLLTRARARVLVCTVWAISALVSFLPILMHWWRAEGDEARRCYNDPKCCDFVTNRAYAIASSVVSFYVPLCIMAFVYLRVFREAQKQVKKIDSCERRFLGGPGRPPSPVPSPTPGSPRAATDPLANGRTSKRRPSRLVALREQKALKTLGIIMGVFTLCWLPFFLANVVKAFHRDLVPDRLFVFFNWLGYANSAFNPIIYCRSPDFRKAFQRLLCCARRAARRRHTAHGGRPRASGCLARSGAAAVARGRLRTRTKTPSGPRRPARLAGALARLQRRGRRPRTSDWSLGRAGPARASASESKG

intraocular pressure = conditions: ocular hypertension rabbit models induced by dexamethasone; cited from earlier work
β receptor = conditions: cited from earlier work
sudden deafness = conditions: injection, within 2 weeks after administration; cited from earlier work
[5] = tested on: blood pressure and heart rate; conditions: conscious spontaneously hypertensive rats, intraperitoneal injection; cited from earlier work
ethanol intake = conditions: rats, intraperitoneal injection; cited from earlier work
β2 receptor = molecular target: T3, β2 receptor (Cavia porcellus, UniProt Q8K4Z4); conditions: trachea strip of guinea pigs; cited from earlier work
T3 construct: trachea strip β2 receptor of guinea pigs; from tissue; host or cells: guinea pig trachea strip
T3 sequence (Q8K4Z4 whole entry): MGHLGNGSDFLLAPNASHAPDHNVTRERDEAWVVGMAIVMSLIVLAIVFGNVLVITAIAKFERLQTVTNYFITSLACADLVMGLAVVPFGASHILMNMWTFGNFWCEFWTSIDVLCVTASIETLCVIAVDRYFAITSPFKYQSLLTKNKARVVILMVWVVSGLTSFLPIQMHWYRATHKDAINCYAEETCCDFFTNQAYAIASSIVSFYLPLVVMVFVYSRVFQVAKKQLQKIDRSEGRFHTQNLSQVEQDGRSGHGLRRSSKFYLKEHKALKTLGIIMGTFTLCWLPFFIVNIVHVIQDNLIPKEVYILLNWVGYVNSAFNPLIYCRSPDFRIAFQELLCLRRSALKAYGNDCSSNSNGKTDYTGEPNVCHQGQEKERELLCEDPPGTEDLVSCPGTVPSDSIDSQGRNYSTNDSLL

benzodiazepine receptor = conditions: cited from earlier work

Q: Which results are given for `O.O=c1c(-c2ccc(O)cc2)coc2c([C@@H]3O[C@H](CO)[C@@H](O)[C@H](O)[C@H]3O)c(O)ccc12.O=c1c(-c2ccc(O)cc2)coc2c([C@@H]3O[C@H](CO)[C@@H](O)[C@H](O)[C@H]3O)c(O)ccc12` [Sample 5, puerarin 0.5 hydrate]?
A: Maximum decrease of intraocular pressure (mmHg) [1]: 2.5 mmHg; Marked content (%) ([2]; sampling time 0 month): 99.1%; Property ([2]; sampling time 0 month): off-white powder; Related substance (%) ([2]; sampling time 0 month): <2%; Marked content (%) ([2]; sampling time 1 month): 99.2%; Property ([2]; sampling time 1 month): off-white powder; Related substance (%) ([2]; sampling time 1 month): <2%; Marked content (%) ([2]; sampling time 2 month): 99.2%; Property ([2]; sampling time 2 month): off-white powder; Related substance (%) ([2]; sampling time 2 month): <2%; Marked content (%) ([2]; sampling time 3 month): 99.0%; Property ([2]; sampling time 3 month): off-white powder; Related substance (%) ([2]; sampling time 3 month): <2%; Marked content (%) ([2]; sampling time 6 month): 98.9%; Property ([2]; sampling time 6 month): off-white powder; Related substance (%) ([2]; sampling time 6 month): <2%; In comparison with 0 h, weight gain, % [3]: 1.51%

Q: What does the source list for `O=c1c(-c2ccc(O)cc2)coc2c([C@@H]3O[C@H](CO)[C@@H](O)[C@H](O)[C@H]3O)c(O)ccc12` [Anhydrous puerarin, reference compound]?
A: Increase of related substance, 6 month results compared to 0 month results ([2]; accelerated test 40° C., compared with puerarin monohydrate): higher increase; Sticking amount relative to puerarin monohydrate [4]: 1-3 times; Hygroscopicity compared with the hydrate of the present invention [3]: much higher; In comparison with 0 h, weight gain, % [3]: 4.26%

Q: For `CC(C)NCC(O)COc1ccc(CCOCC2CC2)cc1` (stereo not shown) [Betaxolol, reference compound], which “Maximum decrease of intraocular pressure (mmHg)” value [1] is on record?
A: Its value is 1.9 mmHg.

Q: For `O=c1c(-c2ccc(O)cc2)coc2c([C@@H]3O[C@H](CO)[C@@H](O)[C@H](O)[C@H]3O)c(O)ccc12` [Sample 2, puerarin monohydrate], which “Maximum decrease of intraocular pressure (mmHg)” value ([1]; monohydrate) is on record?
A: The value was 2.4 mmHg.

Q: For `O=c1c(-c2ccc(O)cc2)coc2c([C@@H]3O[C@H](CO)[C@@H](O)[C@H](O)[C@H]3O)c(O)ccc12` [Sample 3, puerarin monohydrate], which inhibition at 200 mg/kg (ACE; rat, ip, vs control group, read-out: inhibition rate (%)) is on record?
A: Its inhibition at 200 mg/kg is 51%.

Q: And the “ACE (IU)” value (ACE; blood taken 60 min after administration)?
A: Its value is 26.7 ± 6.35 IU.

Q: With `O=c1c(-c2ccc(O)cc2)coc2c([C@@H]3O[C@H](CO)[C@@H](O)[C@H](O)[C@H]3O)c(O)ccc12` [Puerarin, 8-β-D-glucopyranosyl-4′,7-dihydroxylisoflavone] as the compound, how does the Blood pressure (blood pressure) read?
A: Its Blood pressure is “rapid dose-dependent decrease”.

Q: What about the “Action on β1 receptor” value (β1 receptor) of the same compound?
A: Its value is “significant antagonistic action”.

Q: And the Intraocular pressure (intraocular pressure)?
A: Its Intraocular pressure is “reduce”.

Q: What about the “Effect on activation function of adrenalin on adenylate cyclase” value (β receptor) of the same compound?
A: Its value is “completely inhibit”.

Q: What about the “Patients with good state of nail fold microcirculation and improved audition” value (sudden deafness) of the same compound?
A: Its value is 70%.

Q: And the “Blood pressure and heart rate” value [5]?
A: The value was “significantly reduce”.

Q: And the Ethanol intake (ethanol intake)?
A: Its Ethanol intake is “significantly reduce”.

Q: And the “Action on β2 receptor” value (β2 receptor)?
A: The value was “relatively great concentration is required”.

Q: What about the “Activity at benzodiazepine receptor” value (benzodiazepine receptor) of the same compound?
A: Its value is “antagonist or partial agonist”.
